Molecular target: T1, Dimer of Gag-Pol polyprotein [489-587] (Human immunodeficiency virus 1, UniProt P12497)
T1 construct: 489-587
Assay: Protease Inhibition Assay
Experimental: The inhibitory activities of the compounds toward HIV-1 PR were determined by sodium dodecyl sulfate-polyacrylamide gel electrophoresis (SDS-PAGE) assay. The IC50 values of active compounds were determined using the partially purified protease and the synthetic substrate Ac-Ser-Gln-AsnTyr-Pro-Ile-Val-NH2.

With `CC(C)(C)NC(=O)[C@@H]1C[C@H](Cl)CN1C(=O)[C@@H](O)[C@H](Cc1ccccc1)NC(=O)OC1CCSC1` (stereo partly drawn) [thiolan-3-yl N-[(2S,3S)-4-[(2S,4S)-2-(tert-butylcarbamoyl)-4-chloropyrrolidin-1-yl]-3-hydroxy-4-oxo-1-phenylbutan-2-yl]carbamate] the IC50 was 7.7 nM.
